# Test results reported in ChEMBL document CHEMBL4665624, “Synthesis of 5-(4-(1H-phenanthro[9,10-d]imidazol-2-yl)benzylidene)thiazolidine-2,4-dione as promising DNA and serum albumin-binding agents and evaluation of antitumor activity” (Eur J Med Chem, 2019).
# Test system: SNB-75
# Assay: Antitumor activity against human SNB-75 cells assessed as cell growth inhibition at 10 uM incubated for 48 hrs by sulforhodamine B assay
# Assay type: functional
# Conditions: read-out: GI
row,SMILES,inhibition of growth at 10 µM
1,c1cc2ccc3ccc(-c4nc5c6ccccc6c6ccccc6c5[nH]4)c4ccc(c1)c2c34,< 10%

# Test system: ACHN
# Assay: Antitumor activity against human ACHN cells assessed as cell growth inhibition at 10 uM incubated for 48 hrs by sulforhodamine B assay
# Assay type: functional
# Conditions: read-out: GI
row,SMILES,inhibition of growth at 10 µM
1,c1cc2ccc3ccc(-c4nc5c6ccccc6c6ccccc6c5[nH]4)c4ccc(c1)c2c34,10.3%

# Test system: RXF 393
# Assay: Antitumor activity against human RXF 393 cells assessed as cell growth inhibition at 10 uM incubated for 48 hrs by sulforhodamine B assay
# Assay type: functional
# Conditions: read-out: GI
row,SMILES,inhibition of growth at 10 µM
1,c1cc2ccc3ccc(-c4nc5c6ccccc6c6ccccc6c5[nH]4)c4ccc(c1)c2c34,< 10%

# Test system: HL-60(TB)
# Assay: Antitumor activity against human HL-60(TB) cells assessed as cell growth inhibition at 10 uM incubated for 48 hrs by sulforhodamine B assay
# Assay type: functional
# Conditions: read-out: GI
row,SMILES,inhibition of growth at 10 µM
1,c1cc2ccc3ccc(-c4nc5c6ccccc6c6ccccc6c5[nH]4)c4ccc(c1)c2c34,< 10%

# Test system: UO-31
# Assay: Antitumor activity against human UO-31 cells assessed as cell growth inhibition at 10 uM incubated for 48 hrs by sulforhodamine B assay
# Assay type: functional
# Conditions: read-out: GI
row,SMILES,inhibition of growth at 10 µM
1,c1cc2ccc3ccc(-c4nc5c6ccccc6c6ccccc6c5[nH]4)c4ccc(c1)c2c34,37.2%

# Test system: PC-3
# Assay: Antitumor activity against human PC-3 cells assessed as cell growth inhibition at 10 uM incubated for 48 hrs by sulforhodamine B assay
# Assay type: functional
# Conditions: read-out: GI
row,SMILES,inhibition of growth at 10 µM
1,c1cc2ccc3ccc(-c4nc5c6ccccc6c6ccccc6c5[nH]4)c4ccc(c1)c2c34,21.2%

# Test system: SW-620
# Assay: Antitumor activity against human SW620 cells assessed as cell growth inhibition at 10 uM incubated for 48 hrs by sulforhodamine B assay
# Conditions: SW-620, 48 h, read-out: GI
row,SMILES,inhibition of growth at 10 µM
1,c1cc2ccc3ccc(-c4nc5c6ccccc6c6ccccc6c5[nH]4)c4ccc(c1)c2c34,< 10%

# Test system: A498
# Assay: Antitumor activity against human A498 cells assessed as cell growth inhibition at 10 uM incubated for 48 hrs by sulforhodamine B assay
# Assay type: functional
# Conditions: read-out: GI
row,SMILES,inhibition of growth at 10 µM
1,c1cc2ccc3ccc(-c4nc5c6ccccc6c6ccccc6c5[nH]4)c4ccc(c1)c2c34,36.3%

# Test system: NCI-H460
# Assay: Antitumor activity against human NCI-H460 assessed as cell growth inhibition at 10 uM incubated for 48 hrs by sulforhodamine B assay
# Assay type: functional
# Conditions: read-out: GI
row,SMILES,inhibition of growth at 10 µM
1,c1cc2ccc3ccc(-c4nc5c6ccccc6c6ccccc6c5[nH]4)c4ccc(c1)c2c34,< 10%

# Test system: NCI-H23
# Assay: Antitumor activity against human NCI-H23 cells assessed as cell growth inhibition at 10 uM incubated for 48 hrs by sulforhodamine B assay
# Assay type: functional
# Conditions: read-out: GI
row,SMILES,inhibition of growth at 10 µM
1,c1cc2ccc3ccc(-c4nc5c6ccccc6c6ccccc6c5[nH]4)c4ccc(c1)c2c34,< 10%

# Test system: K562
# Assay: Antitumor activity against human K562 cells assessed as cell growth inhibition at 10 uM incubated for 48 hrs by sulforhodamine B assay
# Assay type: functional
# Conditions: read-out: GI
row,SMILES,inhibition of growth at 10 µM
1,c1cc2ccc3ccc(-c4nc5c6ccccc6c6ccccc6c5[nH]4)c4ccc(c1)c2c34,< 10%

# Test system: SK-OV-3
# Assay: Antitumor activity against human SK-OV-3 cells assessed as cell growth inhibition at 10 uM incubated for 48 hrs by sulforhodamine B assay
# Assay type: functional
# Conditions: read-out: GI
row,SMILES,inhibition of growth at 10 µM
1,c1cc2ccc3ccc(-c4nc5c6ccccc6c6ccccc6c5[nH]4)c4ccc(c1)c2c34,< 10%

# Test system: MOLT-4
# Assay: Antitumor activity against human MOLT4 cells assessed as cell growth inhibition at 10 uM incubated for 48 hrs by sulforhodamine B assay
# Assay type: functional
# Conditions: read-out: GI
row,SMILES,inhibition of growth at 10 µM
1,c1cc2ccc3ccc(-c4nc5c6ccccc6c6ccccc6c5[nH]4)c4ccc(c1)c2c34,26.8%

# Test system: SF-268
# Assay: Antitumor activity against human SF268 cells assessed as cell growth inhibition at 10 uM incubated for 48 hrs by sulforhodamine B assay
# Assay type: functional
# Conditions: read-out: GI
row,SMILES,inhibition of growth at 10 µM
1,c1cc2ccc3ccc(-c4nc5c6ccccc6c6ccccc6c5[nH]4)c4ccc(c1)c2c34,14.6%

# Test system: SK-MEL-28
# Assay: Antitumor activity against human SK-MEL-28 cells assessed as cell growth inhibition at 10 uM incubated for 48 hrs by sulforhodamine B assay
# Assay type: functional
# Conditions: read-out: GI
row,SMILES,inhibition of growth at 10 µM
1,c1cc2ccc3ccc(-c4nc5c6ccccc6c6ccccc6c5[nH]4)c4ccc(c1)c2c34,< 10%

# Test system: SF-295
# Assay: Antitumor activity against human SF295 cells assessed as cell growth inhibition at 10 uM incubated for 48 hrs by sulforhodamine B assay
# Assay type: functional
# Conditions: read-out: GI
row,SMILES,inhibition of growth at 10 µM
1,c1cc2ccc3ccc(-c4nc5c6ccccc6c6ccccc6c5[nH]4)c4ccc(c1)c2c34,< 10%

# Test system: NCI-H522
# Assay: Antitumor activity against human NCI-H522 cells assessed as cell growth inhibition at 10 uM incubated for 48 hrs by sulforhodamine B assay
# Assay type: functional
# Conditions: read-out: GI
row,SMILES,inhibition of growth at 10 µM
1,c1cc2ccc3ccc(-c4nc5c6ccccc6c6ccccc6c5[nH]4)c4ccc(c1)c2c34,17.5%

# Test system: HCC 2998
# Assay: Antitumor activity against human HCC2998 cells assessed as cell growth inhibition at 10 uM incubated for 48 hrs by sulforhodamine B assay
# Assay type: functional
# Conditions: read-out: GI
row,SMILES,inhibition of growth at 10 µM
1,c1cc2ccc3ccc(-c4nc5c6ccccc6c6ccccc6c5[nH]4)c4ccc(c1)c2c34,< 10%

# Test system: SR
# Assay: Antitumor activity against human SR cells assessed as cell growth inhibition at 10 uM incubated for 48 hrs by sulforhodamine B assay
# Assay type: functional
# Conditions: read-out: GI
row,SMILES,inhibition of growth at 10 µM
1,c1cc2ccc3ccc(-c4nc5c6ccccc6c6ccccc6c5[nH]4)c4ccc(c1)c2c34,23.7%

# Test system: KM12
# Assay: Antitumor activity against human KM12 cells assessed as cell growth inhibition at 10 uM incubated for 48 hrs by sulforhodamine B assay
# Assay type: functional
# Conditions: read-out: GI
row,SMILES,inhibition of growth at 10 µM
1,c1cc2ccc3ccc(-c4nc5c6ccccc6c6ccccc6c5[nH]4)c4ccc(c1)c2c34,13.5%

# Test system: LOX IMVI
# Assay: Antitumor activity against human LOX IMVI cells assessed as cell growth inhibition at 10 uM incubated for 48 hrs by sulforhodamine B assay
# Assay type: functional
# Conditions: read-out: GI
row,SMILES,inhibition of growth at 10 µM
1,c1cc2ccc3ccc(-c4nc5c6ccccc6c6ccccc6c5[nH]4)c4ccc(c1)c2c34,13.7%

# Test system: RPMI-8226
# Assay: Antitumor activity against human RPMI8226 cells assessed as cell growth inhibition at 10 uM incubated for 48 hrs by sulforhodamine B assay
# Assay type: functional
# Conditions: read-out: GI
row,SMILES,inhibition of growth at 10 µM
1,c1cc2ccc3ccc(-c4nc5c6ccccc6c6ccccc6c5[nH]4)c4ccc(c1)c2c34,10.6%

# Test system: MDA-MB-435
# Assay: Antitumor activity against human MDA-MB-435 cells assessed as cell growth inhibition at 10 uM incubated for 48 hrs by sulforhodamine B assay
# Assay type: functional
# Conditions: read-out: GI
row,SMILES,inhibition of growth at 10 µM
1,c1cc2ccc3ccc(-c4nc5c6ccccc6c6ccccc6c5[nH]4)c4ccc(c1)c2c34,< 10%

# Test system: MCF7
# Assay: Antitumor activity against human MCF7 cells assessed as cell growth inhibition at 10 uM incubated for 48 hrs by sulforhodamine B assay
# Assay type: functional
# Conditions: read-out: GI
row,SMILES,inhibition of growth at 10 µM
1,c1cc2ccc3ccc(-c4nc5c6ccccc6c6ccccc6c5[nH]4)c4ccc(c1)c2c34,23.1%
